Measurements: PMC11727579, “Thermal proteome profiling unveils protein targets of deoxycholic acid in living neuronal cells” (Advanced Biotechnology, 2023)

How the values were obtained:
[1] = target: T1, Casein kinase 1 epsilon (Homo sapiens, UniProt P49674); assay: thermal proteome profiling (iTRAQ LC-MS/MS), isothermal dose-response stabilization at […] °C, SH-SY5Y cells; type: biochemical
T1 construct: gene CSNK1E

[2] = target: T2, Nicastrin (Homo sapiens, UniProt Q92542); assay: as above; type: biochemical
T2 construct: gene NCSTN
T2 sequence (Q92542 34-709): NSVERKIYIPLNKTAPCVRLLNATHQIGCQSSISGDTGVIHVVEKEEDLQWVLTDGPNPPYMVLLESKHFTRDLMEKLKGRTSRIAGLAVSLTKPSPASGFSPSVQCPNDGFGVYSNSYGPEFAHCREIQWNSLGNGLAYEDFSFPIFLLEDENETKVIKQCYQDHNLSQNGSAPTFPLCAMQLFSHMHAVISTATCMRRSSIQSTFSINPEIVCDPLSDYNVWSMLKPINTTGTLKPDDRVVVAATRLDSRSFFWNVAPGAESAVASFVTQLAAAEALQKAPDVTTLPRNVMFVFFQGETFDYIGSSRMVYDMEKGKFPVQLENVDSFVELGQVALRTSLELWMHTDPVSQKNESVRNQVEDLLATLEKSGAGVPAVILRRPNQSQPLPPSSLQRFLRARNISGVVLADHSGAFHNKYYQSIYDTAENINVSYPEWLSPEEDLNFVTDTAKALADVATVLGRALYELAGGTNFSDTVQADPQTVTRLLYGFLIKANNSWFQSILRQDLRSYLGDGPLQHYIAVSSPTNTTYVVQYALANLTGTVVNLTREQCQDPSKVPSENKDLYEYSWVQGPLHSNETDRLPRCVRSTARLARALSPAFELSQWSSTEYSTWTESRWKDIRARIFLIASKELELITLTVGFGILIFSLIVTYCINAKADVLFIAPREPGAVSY

T1 sequence (P49674 whole entry): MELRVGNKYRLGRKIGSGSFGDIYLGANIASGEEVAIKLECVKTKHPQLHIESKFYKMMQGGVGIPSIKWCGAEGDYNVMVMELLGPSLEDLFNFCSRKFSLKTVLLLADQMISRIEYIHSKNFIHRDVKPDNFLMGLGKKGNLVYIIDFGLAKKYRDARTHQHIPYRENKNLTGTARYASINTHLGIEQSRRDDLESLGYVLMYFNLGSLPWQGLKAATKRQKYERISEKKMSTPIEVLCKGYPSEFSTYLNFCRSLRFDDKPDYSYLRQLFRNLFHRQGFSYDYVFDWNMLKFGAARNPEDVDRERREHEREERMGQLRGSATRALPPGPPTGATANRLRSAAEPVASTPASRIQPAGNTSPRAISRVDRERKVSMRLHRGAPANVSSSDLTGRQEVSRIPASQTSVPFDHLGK

Question: `C[C@H](CCC(=O)O)[C@H]1CC[C@H]2[C@@H]3CC[C@@H]4C[C@H](O)CC[C@]4(C)[C@H]3C[C@H](O)[C@]12C` [deoxycholic acid] was tested. Which EC50 [1] did it give?
Answer: 7.22 µM

Question: What about the EC50 [2] of the same molecule?
Answer: 6.03 µM
